Test results taken from patent US11752111B2, “Use of cannabidivarin in the treatment of autism spectrum disorder, associated disorders and schizophrenia” (GW Research Limited, priority 2016, dated 2023).
“Also recorded” adds a separate entry of the source. Read-outs that look alike come from different tables or passages of the source.

Experiments:
Assay type in all cases: in vivo, mouse
[1] = tested on: Fmr1 KO mice; assay: Audiogenic seizure susceptibility, Fmr1 KO (FXS) mice; details: for audiogenic seizures: FXS mice PND21
Method: (§1) This trait was evaluated in PND21 mice after acute administration of the compounds or its vehicle, 30 min before starting the procedure. To measure audiogenic seizure sensitivity mice were placed individually into a novel environment, a glass cylinder (40 cm high, 16 cm diameter) and allowed to explore for 1 min. Next, a bell (100 dB) was rung for 30 sec and seizure activity scored according to the following scale: no response, 0; wild running, 1; clonic seizure, 2; tonic seizure, 3; status epilepticus/respiratory arrest/death, 4.
(§2) On postnatal day 21 (PND21) WT and Fmr1 KO mice were injected with CBDV (2, 10, 20 or 100 mg/kg) or vehicle, 30 min before exposure to a bell ring (100 dB). Mice exposed to this noise for 30 sec ceased from their normal exploratory behaviour and reacted with gradually to wild-running, clonic seizure, tonic seizure or death. The maximum response was annotated for each mouse as detailed in Table 2 below. A score was calculated according to the severity of the symptoms as explained in the Methods section.

[2] = tested on: Ube3am-/p+ (AS) mice; assay: Clasping test in Angelman syndrome model; details: CBDV 20 mg/kg i.p. chronic treatment (30 days); AS mice at 10 weeks of age vs AS vehicle
Method: Heterozygous mice with maternal deficiency of Ube3A (Ube3am−/p+) and wild type (Ube3am+/p+) were purchased from The Jackson Laboratory (Jackson code: B6.129S7-Ube3a tm1Alb/J) and maintained in a C57BL/6 background.
Drugs were dissolved in 1:1:18 ethanol:cremophor:0.9% saline, for intraperitoneal (i.p.) administration. […] CBDV was administered at 20 mg/kg.
Clasping: The clasping test assesses ataxia in mice. Mice were suspended by the base of the tail and their behaviours were recorded for 30 seconds. The time for which the mice clasped their hind limbs was recorded. The time was then scored as follows: 4, 15-30 s, 3, 10-15 s, 2, 5-10 s, 1, 0-5 s and 0,0 s

[3] = tested on: MeCP2 KO mice; assay: Symptom scoring in Rett syndrome model
Method: CBDV was administered daily at the dose of 2, 20 and 200 mg/kg i.p. starting from PND 28 and the following signs were scored every other day: hindlimb clasping (indication of motor imbalance), tremor, gait (measure of coordination), breathing, mobility and general condition.
Starting from PND 28, mice received a daily intraperitoneal injection of CBDV (or vehicle) at the dose of 2, 20 and 200 mg/kg. Animals were then scored every other day to evaluate the effect of CBDV treatment on motor symptoms (hindlimb clasping, gait, mobility) as well as neurological signs and general conditions (breathing abnormalities, tremors and general condition) present in MeCP2 knockout (KO) mice.
Each of the six symptoms was scored from 0 to 2 (0 corresponds to the symptom being absent or the same as in the wild type (WT) animal; 1 when the symptom was present; 2 when the symptom was severe).
Mobility: the mouse is observed when placed on bench, then when handled gently. 0=as WT. 1=reduced movement when compared with WT: extended freezing period when first placed on bench and longer periods spent immobile. 2=no spontaneous movement when placed on the bench; mouse can move in response to a gentle prod or a food pellet placed nearby.
Gait: 0=as WT. 1=hind legs are spread wider than WT when walking or running with reduced pelvic elevation, resulting in a ‘waddling’ gait. 2=more severe abnormalities: tremor when feet are lifted, walks backward or ‘bunny hops’ by lifting both rear feet at once.
Hindlimb clasping: mouse observed when suspend by holding base of the tail. 0=legs splayed outward. 1=hindlimbs are drawn toward each other (without touching) or one leg is drawn into the body. 2=both legs are pulled in tightly, either touching each other or touching the body.
Tremor: mouse observed while standing on the flat palm of the hand. 0=no tremor. 1=intermittent mild tremor. 2=continuous tremor or intermittent violent tremor.
Breathing: movement of flanks observed while animal is standing still. 0=normal breathing. 1=periods of regular breathing interspersed with short periods of more rapid breathing or with pauses in breathing. 2=very irregular breathing-gasping or panting.
General condition: mouse observed for indicators of general well-being such as coat condition, eyes and body stance. 0=clean shiny coat, clear eyes, and normal stance. 1=eyes dull, coat dull/un-groomed, and somewhat hunched stance. 2=eyes crusted or narrowed, piloerection, and hunched posture.

[4] = tested on: WT mice; assay: Audiogenic seizure susceptibility, WT mice; details: WT PND21
Method: as §1, §2

[5] = FXS (Fmr1 KO) PND21, CBDV 2 mg/kg acute, n = 5
[6] = FXS (Fmr1 KO) PND21, CBDV 10 mg/kg acute, n = 5
[7] = FXS (Fmr1 KO) PND21, CBDV 20 mg/kg acute, n = 5
[8] = FXS (Fmr1 KO) PND21, CBDV 100 mg/kg acute, n = 5

C=C(C)[C@@H]1CCC(C)=C[C@H]1c1c(O)cc(CCC)cc1O [CBDV, Cannabidivarin]
maximum response: No response (number of mice) [1]: 2
maximum response: Clonic seizure (number of mice) [1, 5]: 0
maximum response: Death (number of mice) [1, 5]: 0
maximum response: Tonic seizure (number of mice) [1, 5]: 2
maximum response: Wild running (number of mice) [1, 5]: 1
maximum response: Clonic seizure (number of mice) [1, 6]: 0
maximum response: Death (number of mice) [1, 6]: 0
maximum response: No response (number of mice) [1, 6]: 0
maximum response: Tonic seizure (number of mice) [1, 6]: 2
maximum response: Wild running (number of mice) [1, 6]: 3
maximum response: Clonic seizure (number of mice) [1, 7]: 0
maximum response: Death (number of mice) [1, 7]: 0
maximum response: No response (number of mice) [1, 7]: 2
maximum response: Tonic seizure (number of mice) [1, 7]: 2
maximum response: Wild running (number of mice) [1, 7]: 1
maximum response: Clonic seizure (number of mice) [1, 8]: 0
maximum response: Death (number of mice) [1, 8]: 0
maximum response: No response (number of mice) [1, 8]: 5
maximum response: Tonic seizure (number of mice) [1, 8]: 0
maximum response: Wild running (number of mice) [1, 8]: 0
audiogenic seizures ([1]; acute 100 mg/kg): remained seizure free; also recorded: completely eliminate the seizures
audiogenic seizures ([1]; acute lower doses (2, 10, 20 mg/kg)): experienced seizures of varying severity
clasping duration (FIG. 11) [2]: significantly reduced clasping duration
total symptom score (FIG. 8) ([3]; 2 mg/kg, PND 45, 47, 49, 55, 56, 57, 58, 60 and 64, KO mice): significantly improved total symptom score at every time point
breathing score (FIG. 6B) ([3]; 2 mg/kg, PND 56 to 60, KO mice): significantly improve breathing
tremor score (FIG. 6A) ([3]; 2 mg/kg, PND 63, KO mice): still protective
general conditions (coat and eyes) (FIG. 7A) ([3]; 20 mg/kg, KO mice): significantly effective only at the earlier time point (PND 52)
breathing score (FIG. 6B) ([3]; 20 mg/kg, PND 57, KO mice): significant effect
hindlimb clasping score (FIG. 6C) ([3]; 200 mg/kg, KO mice): did not significantly affect
total symptom score (FIG. 8) ([3]; 200 mg/kg, KO mice): exerted beneficial effect at a later time point (PND 47) and its protective effect was evident until PND 58
gait score (FIG. 6D) ([3]; 200 mg/kg, PND 53 to 57, KO mice): significantly improved gait
tremor score (FIG. 6A) ([3]; 200 mg/kg, PND 55 and 63, KO mice): still able to reduce tremors
breathing score (FIG. 6B) ([3]; 200 mg/kg, PND 57 and 60, KO mice): effective
general conditions (coat and eyes) (FIG. 7A) ([3]; 2 and 200 mg/kg, PND 52-64, KO mice): significantly improved
mobility score (FIG. 7B) ([3]; KO mice): reached statistical significance only at PND 64
total symptom score (FIG. 8) ([3]; all three doses, KO mice vs KO-vehicle): delay and attenuate the appearance of the phenotype
tremor score (FIG. 6A) ([3]; all three doses, PND 45-49, KO mice): significantly delaying and reducing tremors
hindlimb clasping score (FIG. 6C) ([3]; lower doses (2, 20 mg/kg), PND 47 and 49, KO mice): significantly attenuate hindlimb clasping
maximum response: Clonic seizure (number of mice) ([4]; CBDV 2 mg/kg acute, n = 6): 0
maximum response: Death (number of mice) ([4]; CBDV 2 mg/kg acute, n = 6): 0
maximum response: Tonic seizure (number of mice) ([4]; CBDV 2 mg/kg acute, n = 6): 0
maximum response: Wild running (number of mice) ([4]; CBDV 2 mg/kg acute, n = 6): 0
maximum response: Clonic seizure (number of mice) ([4]; CBDV 10 mg/kg acute, n = 5): 0
maximum response: Death (number of mice) ([4]; CBDV 10 mg/kg acute, n = 5): 0
maximum response: Tonic seizure (number of mice) ([4]; CBDV 10 mg/kg acute, n = 5): 0
maximum response: Wild running (number of mice) ([4]; CBDV 10 mg/kg acute, n = 5): 0
maximum response: Clonic seizure (number of mice) ([4]; CBDV 20 mg/kg acute, n = 6): 0
maximum response: Death (number of mice) ([4]; CBDV 20 mg/kg acute, n = 6): 0
maximum response: Tonic seizure (number of mice) ([4]; CBDV 20 mg/kg acute, n = 6): 0
maximum response: Wild running (number of mice) ([4]; CBDV 20 mg/kg acute, n = 6): 1
maximum response: Clonic seizure (number of mice) ([4]; CBDV 100 mg/kg acute, n = 6): 0
maximum response: Death (number of mice) ([4]; CBDV 100 mg/kg acute, n = 6): 0
maximum response: Tonic seizure (number of mice) ([4]; CBDV 100 mg/kg acute, n = 6): 0
maximum response: Wild running (number of mice) ([4]; CBDV 100 mg/kg acute, n = 6): 0
